Experimental data published in US10093675B2, “6,8-disubstituted-9-(heterocyclyl)purines, compositions containing these derivatives and their use in cosmetic and medicinal applications” (USTAV EXPERIMENTALNI BOTANIKY AV CR, V.V.I., priority 2014, dated 2018).

Experiments:
[1] = system: excised wheat leaf tips (Triticum aestivum cv. Hereward); experiment: Senescence inhibition on winter wheat leaf segments (retention of chlorophyll); assay type: in vivo; settings: 10^−4 mol/L; 96 hours in the dark; activity of kinetin set at 100%
Description: (§1) Seeds of winter wheat, Triticum aestivum cv. Hereward, were washed under running water for 24 hours and then sown on vermiculite soaked with Knop's solution. They were placed in the grown chamber at 25° C. with a 16/8 hours light period at […]. After 7 days, the first leaf was fully developed and the second leaf had started to grow. A tip section of the first leaf, approximately 35 mm long, was removed from 5 seedlings and trimmed slightly to a combined weight of 100 mg. The basal ends of the five leaf tips were placed in the wells of a microtiter polystyrene plate containing […] of a cytokinin solution each. The entire plate was inserted into a plastic box lined with paper tissues soaked in distilled water to prevent leaf sections from drying out. After 96 hours incubation in the dark at 25° C., the leaves were removed and chlorophyll extracted by heating at 80 C for 10 min in 5 ml of 80% ethanol (v/v). The sample volume was then restored to 5 ml by the addition of 80% ethanol (v/v). The absorbance of the extract was recorded at 665 nm. In addition, chlorophyll extracts from fresh leaves and leaf tips incubated in deionized water were measured. From the obtained data, the concentration with highest activity was selected for each compound tested. Relative activity of the compound at this concentration was calculated (see Table 6 below). The activity obtained for 10^−4 M kinetin (Kin) was set as 100%. The values shown are means of five replicates and the whole experiment was repeated twice.
The compounds to be tested were dissolved in dimethylsulfoxide (DMSO) and the solution brought up to 10^−3 M with distilled water. […] As summarized in Table 6 below, the presence of C-8 substitutent was beneficial and led to increase of antisenescent properties.

[2] = system: detached leaves of Triticum aestivum cv. Hereward; experiment: Membrane lipid peroxidation (MDA, TBA method) in detached wheat leaves during dark senescence; assay type: in vivo; settings: four days in the dark, Control 18.9 (±2.2)
Description: A typical symptom associated with senescence as a direct consequence of increased reactive oxygen species is lipid peroxidation. Therefore the levels of MDA, a decomposition product of lipid peroxidation, were measured in detached wheat leaves that were exposed to the prepared novel derivatives and kinetin for four days in the dark as described in Example 8. MDA levels were measured using a thiobarbituric acid (TBA) method. In detail, 100 mg of fresh plant material was homogenized by high speed shaking in a ball mill (MM301, Retsch, Germany) with 1 mL of 80% methanol. The crude extract was centrifuged at 10,000×g for 5 min, and 100 μL aliquot of supernatant was vortexed with 100 μL of 0.5% (w/v) TBA containing 0.1% (w/v) trichloroacetic acid, and the resulting solution was then incubated for 30 min at 95° C. The samples were quickly cooled on ice and recentrifuged for 5 min at 1000×g. The absorbance of supernatant was measured at 532 nm with background subtraction at 600 nm and the amount of MDA-TBA complex was calculated from the coefficient of absorbance 155 mM^−1cm^−1.
as §1

[3] = system: Salmonella typhimurium histidien auxotrophs TA98 and TA100; experiment: Ames test; assay type: cell-based; settings: 2.5 to 5000 μg/plate; presence and absence of Aroclor-induced rat liver S9
Description: A number of tests related to the safety of have been carried out using conventionally accepted protocols and procedures. The results of these studies are summarized herein. Tests were carried out using DMSO as solvent and dose levels of compound 21, 24, 26, 27, 39, 41, 45, 48, 50, 52, 53, 54, 55, 56, 63, 64, 66, 67, 68, 69, 70, 71, 72, 74, 76, 124, 125, 126, 127, 128, 129, 130, 145, 146, 147, 149, 150, 151, 208, 216, 218 a 243 at 2.5, 5.0, 15, 50, 500, 1500, and 5000 μg/plate based upon standard protocol and procedures (Ames et al., Mutation Research, 31, 347-364 (1975); Maron et al., Mutation Research, 113, 173-215 (1983)).

[4] = system: human diploid fibroblasts (HDF cells; HDF25, HDF45, HDF80); experiment: Inhibition of human cell aging: senescent cells by beta-galactosidase staining; assay type: cell-based; settings: for SENESCENT CELLS (%) HDF25: human diploid fibroblasts passage 25, beta-galactosidase staining; for SENESCENT CELLS (%) HDF45: human diploid fibroblasts passage 45, beta-galactosidase staining; for SENESCENT CELLS (%) HDF80: human diploid fibroblasts passage 80, beta-galactosidase staining
Description: In this example, human diploid fibroblasts (HDF cells of various passage levels: passage 25—designated HDF25; passage 45—designated HDF45; passage 80—designated HDF80) were stained for beta-galactosidase activity. The medium used for the cell cultivation was removed the cells were washed twice in […], and fixed in 2-3 ml of fixing solution comprised of a 2% formaldehyde and 0.2% glutaraldehyde in PBS. The cells were incubated at room temperature for 5 minutes, and then washed twice with PBS. The cells were subsequently incubated at 37° C. […] In this experiment, senescent cells, but no other cells were stained blue due to the action of beta-galactosidase on the substrate.

| SMILES | MDA (nmol/g FW) [2] | further results |
| --- | --- | --- |
| Clc1nc2c(NCc3ccco3)ncnc2n1C1CCCCO1 (stereo not drawn) [Compound 1, 8-Chloro-6-furfurylamino-9-(tetrahydropyran-2-yl)-9H-purine] | 12.8 (±1.0) nmol/g FW | Activity (%) (s.d.), retention of chlorophyll [1]: 105 (±3) % |
| Oc1ccc(CNc2ncnc3c2nc(Cl)n3C2CCCCO2)cc1O (stereo not drawn) [Compound 10] | 12.8 (±1.1) nmol/g FW | Activity (%) (s.d.), retention of chlorophyll [1]: 132 (±7) % |
| Oc1ccc(CNc2ncnc3c2nc(Cl)n3C2CCCCO2)cc1 (stereo not drawn) [Compound 13] | 11.9 (±1.3) nmol/g FW |  |
| COc1cc(CNc2ncnc3c2nc(Cl)n3C2CCCCO2)cc(OC)c1O (stereo not drawn) [Compound 14] | 12.2 (±1.4) nmol/g FW |  |
| Oc1ccc(Nc2ncnc3c2nc(Cl)n3C2CCCCO2)cc1 (stereo not drawn) [Compound 16] | 11.6 (±1.0) nmol/g FW |  |
| Brc1nc2c(NCc3ccco3)ncnc2n1C1CCCCO1 (stereo not drawn) [Compound 21, 8-Bromo-6-furfurylamino-9-(tetrahydropyran-2-yl)-9H-purine] | 12.1 (±1.2) nmol/g FW | Activity (%) (s.d.), retention of chlorophyll [1]: 108 (±3) %; mutagenic response [3]: no positive mutagenic responses; SENESCENT CELLS (%) HDF25 [4]: 3%; SENESCENT CELLS (%) HDF45 [4]: 5%; SENESCENT CELLS (%) HDF80 [4]: 20% |
| C/C(=C/CNc1ncnc2c1nc(Br)n2C1CCCCO1)CO (stereo not drawn) [Compound 25] | 11.7 (±1.1) nmol/g FW |  |
| Oc1ccc(CNc2ncnc3c2nc(Br)n3C2CCCCO2)cc1O (stereo not drawn) [Compound 39] | 11.6 (±1.2) nmol/g FW | Activity (%) (s.d.), retention of chlorophyll [1]: 128 (±3) %; mutagenic response [3]: no positive mutagenic responses; SENESCENT CELLS (%) HDF25 [4]: 3%; SENESCENT CELLS (%) HDF45 [4]: 4%; SENESCENT CELLS (%) HDF80 [4]: 20% |
| Oc1ccc(Nc2ncnc3c2nc(Br)n3C2CCCCO2)cc1 (stereo not drawn) [Compound 44] | 10.7 (±0.8) nmol/g FW |  |
| C/C(=C/CNc1ncnc2c1nc(N(C)C)n2C1CCCO1)CO (stereo not drawn) [Compound 189] | 10.8 (±0.9) nmol/g FW |  |
| Nc1nc2c(NCc3ccco3)ncnc2n1C1CCCO1 (stereo not drawn) [Compound 197] | 9.2 (±0.6) nmol/g FW |  |
| Nc1nc2c(NCc3ccc(O)cc3)ncnc2n1C1CCCO1 (stereo not drawn) [Compound 201] | 8.7 (±0.7) nmol/g FW |  |
| Oc1nc2c(NCc3ccco3)ncnc2n1C1CCCO1 (stereo not drawn) [Compound 221] | 10.2 (±0.5) nmol/g FW |  |
| Oc1ccc(CNc2ncnc3c2nc(O)n3C2CCCO2)cc1 (stereo not drawn) [Compound 224] | 9.3 (±0.8) nmol/g FW |  |
| NCCNc1nc2c(NCc3ccco3)ncnc2n1C1CCCO1 (stereo not drawn) [Compound 233] | 9.8 (±0.7) nmol/g FW |  |
| NCCCNc1nc2c(NCc3ccco3)ncnc2n1C1CCCO1 (stereo not drawn) [Compound 238] | 9.4 (±0.7) nmol/g FW |  |
| NCCCOc1nc2c(NCc3ccco3)ncnc2n1C1CCCO1 (stereo not drawn) [Compound 241] | 9.6 (±0.8) nmol/g FW |  |
| CC(C)=CCNc1ncnc2c1nc(NCCO)n2C1CCCO1 (stereo not drawn) [Compound 245] | 9.5 (±0.6) nmol/g FW |  |
